The text below walks through data of patent US20210000966A1, “HSP90-TARGETING CONJUGATES AND FORMULATIONS THEREOF” (TARVEDA THERAPEUTICS, INC., priority 2017, published 2021).

Where two headings read alike, the source gives them in different places.

Data set [1] deals with T1, HSP90α (Homo sapiens, UniProt P07900).
T1 construct: purchased
The data set can be described thus: HSP90 binding, HSP90α Assay Kit (fluorescence polarization, labeled geldanamycin competition). The procedure: The bindings of the conjugates to HSP90 were studied with the HSP90α Assay Kit. The HSP90α Assay Kit is designed for identification of HSP90α inhibitors using fluorescence polarization. The assay is based on the competition of fluorescently labeled geldanamycin for binding to purified recombinant HSP90α. The key to the HSP90α Assay Kit is the fluorescently labeled geldanamycin. The fluorescently labeled geldanamycin is incubated with a sample containing HSP90α enzyme to produce a change in fluorescent polarization that can then be measured using a fluorescence reader.
For orientation: Fluorescence polarisation rises when a labelled molecule tumbles more slowly, as on binding a larger partner.

Data set [2] concerns human total EbB2/Her2. The data set can be described thus: HER2 degradation assay (ELISA) in BT474 cells. It is filed as cell-based. The conditions noted are these: BT-474, 16 hrs, read-out: Her2 Degradation IC50 Abs IC50. How it is done: BT474 (breast cancer) cells were plated at 12,000 cells per well and incubated for 20-24 hrs at 37° C. at 5% CO2. Post cell incubation, compounds were reconstituted in DMSO to a stock concentration of 5 mM. A compound plate was then prepared containing a 10 point dilution in DMSO. 2 uL of these dilutions were then added to the cells for a final working concentration of 5 uM to 0.0003 uM. Compounds and cells were incubated for 16 hrs. Media was then removed, cells washed, lysed, and analyzed for human total EbB2/Her2 levels by ELISA.

Data set [3] relates to NCI-H460 cells. The data set can be described thus: NCI-H460 tumor cell cytotoxicity assay (CellTiter-Glo). It is filed as cell-based. The conditions noted are these: Homo sapiens, NCI-H460, 48 h. How it is done: NCI-H460 cells (non-small cell lung cancer) were plated at 500 cells per well and incubated for 20-24 hrs at 37° C. at 5% CO2. Post cell incubation, compounds were reconstituted in DMSO to a stock concentration of 200 uM. A compound plate was then prepared containing a 10 point dilution in RPMI+10% FBS+0.25% DMSO. 5 uL of the dilution was then added for a final working concentration range of 10 uM to 0.0005 uM. Compounds and cells were then incubated for 48 hrs. Cells were then analyzed by CellTiter-Glo for ATP levels and percent inhibition calculated.

For data set [4], the system named is PARP. Put plainly: PARP inhibiting activity (FIG. 8A). The format is biochemical. The conditions noted are these: in words. The source says:
The activity of the respective payload is blocked until the linker moiety gets cleaved in the tumor and releases active unblocked payload. Through the HSP90 platform, toxicity is mitigated by masking the payload's active site until it can be delivered to the tumor.
FIG. 8A compares the activity of Conjugate 45 and its payload (talazoparib). FIG. 8B compares the activity of Conjugate 46 and its payload (ulixertinib). FIG. 8C compares the activity of Conjugate 47 and its payload TAK-733. The data further support that attaching a payload to a HSP90 binding ligand blocks the target activity of the payload. The HSP90 bindings of the HSP90 ligands are not affected.

Data set [5] addresses T2, topoisomerase-I (Homo sapiens, UniProt P11387).
T2 sequence (P11387 1-765): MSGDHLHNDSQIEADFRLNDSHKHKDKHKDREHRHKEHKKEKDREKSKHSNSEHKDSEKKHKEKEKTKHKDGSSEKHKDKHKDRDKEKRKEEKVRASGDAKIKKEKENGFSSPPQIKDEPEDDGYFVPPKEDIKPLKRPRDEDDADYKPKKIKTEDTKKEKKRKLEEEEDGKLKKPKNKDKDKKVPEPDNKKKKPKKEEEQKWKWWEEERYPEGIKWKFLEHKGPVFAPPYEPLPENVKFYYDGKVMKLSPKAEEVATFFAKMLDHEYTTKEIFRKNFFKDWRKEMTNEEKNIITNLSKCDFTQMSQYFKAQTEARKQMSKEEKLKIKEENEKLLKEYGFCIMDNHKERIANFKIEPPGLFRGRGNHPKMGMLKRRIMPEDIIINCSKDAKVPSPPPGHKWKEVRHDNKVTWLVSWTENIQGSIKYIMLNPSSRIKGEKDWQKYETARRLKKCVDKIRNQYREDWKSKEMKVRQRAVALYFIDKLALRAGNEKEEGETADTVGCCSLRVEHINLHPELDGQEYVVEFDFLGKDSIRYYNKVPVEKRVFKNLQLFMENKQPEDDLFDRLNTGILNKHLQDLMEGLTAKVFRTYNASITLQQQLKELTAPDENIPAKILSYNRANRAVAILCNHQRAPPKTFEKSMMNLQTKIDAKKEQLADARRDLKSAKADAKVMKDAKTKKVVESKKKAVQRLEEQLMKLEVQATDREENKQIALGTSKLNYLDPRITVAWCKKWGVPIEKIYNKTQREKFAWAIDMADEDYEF
The data set can be described thus: DNA damage / topoisomerase activity (FIG. 9). The following applies: FIG. 9, in words. It is filed as biochemical. The source says: In one further study, DNA damage caused by Conjugate 48 (a conjugate comprising a ganetespib derivative and SN-38) was compared with the DNA damage caused by SN-38, the payload of Conjugate 48. SN-38 and its pre-drug, irinotecan (an analog of camptothecin), are inhibitors of topoisomerase-I and potently cause DNA damage that results in nicks in the DNA. […] The conjugation of SN-38 to the HSP90 ligand results in the masking of the activity of SN-38 until it can be selectively delivered to tumors where linker cleavage occurs.

Data set [6] relates to LS174t colon tumor xenograft. The data set can be described thus: LS174t colon tumor xenograft model, efficacy. The following applies: FIG. 3A, in words. It is filed as in vivo, mice.
Data set [7] is classed as in vivo, mice. The following applies: LS174t xenograft, in words. How it is done: Accumulation and retention of Conjugate 38 was tested in this tumor xenograft model.
Data set [8] is described as follows: Glucose levels post dosing in mice. The following applies: FIG. 7, in words. The format is in vivo. The source says:
In an in vivo study in mice, glucose levels were monitored post PI3K inhibitor (Copanlisib) and Conjugate 38 dosing. […] Therefore, conjugating a PI3K enzyme inhibitor payload to a HSP90 targeting ligand reduced the normal tissue activity of glucose increase in mice.

Where [9] appears, read: n = 1, read-out: H460 in vitro cytotoxicity.
The mark [10] stands for this setting: n = 2, read-out: H460 in vitro cytotoxicity.

Usually Kd stands for the concentration at which binding is half-saturated. Regarding `CCNC(=O)c1nnc(-c2cc(C(C)C)c(O)cc2O)n1-c1ccc(C(=O)N2CCN(c3ccc(OC(=O)N4CCN(CCCOc5ccc6c(c5OC)N=C(NC(=O)c5cnc(N)nc5)N5CCN=C65)CC4)cc3)CC2)cc1` [Compound 29], the Kd in data set [1] (read-out: HSP90 Binding Kd) came to 1.03 nM. Further, the IC50 in data set [2] worked out at 59 nM. For `CCNC(=O)c1nnc(-c2cc(C(C)C)c(O)cc2O)n1-c1ccc(CN2CCN(C(=O)c3ccc(OC(=O)N4CCN(CCCOc5ccc6c(c5OC)N=C(NC(=O)c5cnc(N)nc5)N5CCN=C65)CC4)cc3)CC2)cc1` [Compound 30], in that order: 0.68 nM and 38 nM. With `CCNC(=O)c1nnc(-c2cc(C(C)C)c(O)cc2O)n1-c1ccc(CN2CCC(C(=O)N3CCN(c4ccc(OC(=O)N5CCN(CCCOc6ccc7c(c6OC)N=C(NC(=O)c6cnc(N)nc6)N6CCN=C76)CC5)cc4)CC3)CC2)cc1` [Compound 31], the Kd in data set [1] (read-out: HSP90 Binding Kd) was 1.38 nM. Moreover, the IC50 in data set [2] stood at 103 nM. For the compound `CCNC(=O)c1nnc(-c2cc(C(C)C)c(O)cc2O)n1-c1ccc(C(=O)N2CCN(Cc3ccc(OC(=O)N4CCN(CCCOc5ccc6c(c5OC)N=C(NC(=O)c5cnc(N)nc5)N5CCN=C65)CC4)cc3)CC2)cc1` [Compound 32], the Kd in data set [1] (read-out: HSP90 Binding Kd) was 0.86 nM. Further, the IC50 in data set [2] was found to be 49 nM. The matching figures for `CCNC(=O)c1nnc(-c2cc(C(C)C)c(O)cc2O)n1-c1ccc(C(=O)N2CCN(Cc3ccc(OC(=O)N4CCN(CCCOc5ccc6c(c5OC)N=C(NC(=O)c5cnc(N)nc5)N5CCN=C65)CC4)c(C)c3)CC2)cc1` [Compound 33]: 1.03 nM and 41 nM. For `CCNC(=O)c1nnc(-c2cc(C(C)C)c(O)cc2O)n1-c1ccc(C(=O)NCc2cc(C)c(OC(=O)N3CCN(CCCOc4ccc5c(c4OC)N=C(NC(=O)c4cnc(N)nc4)N4CCN=C54)CC3)c(C)c2)cc1` [Compound 34], in that order: 1.37 nM and 141 nM.

In the case of `CCNC(=O)c1nnc(-c2cc(C(C)C)c(O)cc2O)n1-c1ccc(CN2CCN(C(=O)N3CCN(CCCOc4ccc5c(c4OC)N=C(NC(=O)c4cnc(N)nc4)N4CCN=C54)CC3)CC2)cc1` [Compound 36], the IC50 in data set [2] stood at 72 nM. On the same count and under the same terms, next, `CCNC(=O)c1nnc(-c2cc(C(C)C)c(O)cc2O)n1-c1ccc(CN2CCN(C(=O)Oc3ccc(OC(=O)N4CCN(CCCOc5ccc6c(c5OC)N=C(NC(=O)c5cnc(N)nc5)N5CCN=C65)CC4)cc3)CC2)cc1` [Compound 37]: 119 nM.

`COc1c(OCCCN2CCN(C(=O)Oc3ccc(CC(=O)N4CCN(Cc5ccc(-n6c(O)nnc6-c6cc(C(C)C)c(O)cc6O)cc5)CC4)cc3)CC2)ccc2c1N=C(NC(=O)c1cnc(N)nc1)N1CCN=C21` [Compound 39]: the Kd in data set [1] (read-out: HSP90 Binding Kd) amounted to 1.8 nM. Besides, in data set [2], the IC50 was above 20000 nM. For `COc1c(OCCCN2CCN(C(=O)Oc3ccc(CC(=O)N4CCC(CCn5ccc6cc(-n7c(O)nnc7-c7cc(C(C)C)c(O)cc7O)ccc65)CC4)cc3)CC2)ccc2c1N=C(NC(=O)c1cnc(N)nc1)N1CCN=C21` [Compound 40], the IC50 in data set [3] (setting [9]) stood at 247 nM; in data set [3] (setting [10]) it was 56 nM. For `CCNC(=O)c1nnc(-c2cc(C(C)C)c(O)cc2O)n1-c1ccc(C(=O)NCCc2ccc(OC(=O)N(CCCOc3ccc4c(c3OC)N=C(NC(=O)c3cnc(N)nc3)N3CCN=C43)C(C)C)cc2)cc1` [Compound 42], in that order: 135 nM and 147 nM. The matching figures for `CCNC(=O)c1nnc(-c2cc(C(C)C)c(O)cc2O)n1-c1ccc(CN2CCN(C(=O)Cc3ccc(CC(=O)N(C)CCCOc4ccc5c(c4OC)N=C(NC(=O)c4cnc(N)nc4)N4CCN=C54)cc3)CC2)cc1` [Compound 43]: 42 nM and 31 nM.

In the case of `CCNC(=O)c1nnc(-c2cc(C(C)C)c(O)cc2O)n1-c1ccc(C(=O)NCCc2ccc(OC(=O)N(C)CCCOc3ccc4c(c3OC)N=C(NC(=O)c3cnc(N)nc3)N3CCN=C43)cc2)cc1` [Compound 44], the IC50 in data set [3] (setting [9]) was determined as 527 nM; in data set [3] (setting [10]) it was 325 nM.

In the case of `CC(C)c1cc(-c2nnc(O)n2-c2ccc(CN3CCN(CCC(C)(C)SS[C@H](C)COC(=O)N(CCN(C)C)Cn4nc5c6c(cc(F)cc6c4=O)N[C@H](c4ccc(F)cc4)[C@H]5c4ncnn4C)CC3)cc2)c(O)cc1O` [Compound 45], the Kd in data set [1] (read-out: HSP90 KD) turned out to be 0.33 nM. On the same count and under the same terms, the value for `CCNC(=O)c1nnc(-c2cc(C(C)C)c(O)cc2O)n1-c1ccc(CN2CCC(C(=O)N3CCC(C(=O)OC[C@@H](NC(=O)c4cc(-c5cc(NC(C)C)ncc5Cl)c[nH]4)c4cccc(Cl)c4)CC3)CC2)c(F)c1` [Compound 46] was 1 nM; that for `CCNC(=O)c1nnc(-c2cc(C(C)C)c(O)cc2O)n1-c1ccc(N(C)C2CCN(C(=O)CCC(=O)OC[C@H](O)Cn3cnc4c(c(Nc5ccc(I)cc5F)c(F)c(=O)n4C)c3=O)CC2)cc1` [Compound 47] was 1.2 nM. For the compound `CC(C)c1cc(-c2nnc(O)n2-c2ccc(CN3CCN(CCC(C)(C)SS[C@H](C)COC(=O)N(CCN(C)C)Cn4nc5c6c(cc(F)cc6c4=O)N[C@H](c4ccc(F)cc4)[C@H]5c4ncnn4C)CC3)cc2)c(O)cc1O` [Conjugate 45], in data set [4], the “PARP inhibiting activity compared with payload (talazoparib)” value is recorded as “lower than its payload”. In the case of `CCc1c2c(nc3ccc(OC(=O)N4CCC(CCn5ccc6cc(-n7c(O)nnc7-c7cc(C(C)C)c(O)cc7O)ccc65)CC4)cc13)-c1cc3c(c(=O)n1C2)COC(=O)[C@]3(O)CC` [Conjugate 48], in data set [5], the DNA damage entry was “negligible levels of DNA damage up to 100 uM”.

On to `COc1c(OCCCN2CCOCC2)ccc2c1N=C(NC(=O)c1cnc(N)nc1)N1CCN=C21` [Copanlisib, reference compound], for which the “efficacy (tumor growth inhibition) in LS174t xenograft” value in data set [6] is recorded as “lack of efficacy”. Moreover, the tumor retention time result in data set [7] is “much shorter tumor retention time”. The “glucose concentration after dosing” value in data set [8] is recorded as “increase in glucose levels”.

For `CCc1c2c(nc3ccc(O)cc13)-c1cc3c(c(=O)n1C2)COC(=O)[C@]3(O)CC` [SN-38], in data set [5], the DNA damage entry is “DNA damage even at 1 uM”. As to `CC(C)c1cc(-c2nnc(O)n2-c2ccc3c(ccn3C)c2)c(O)cc1O` [ganetespib, reference compound], the DNA damage entry in data set [5] is given as “none”. Besides, the “efficacy (tumor growth inhibition) in LS174t xenograft” value in data set [6] is recorded as “lack of efficacy”. For the compound `CCc1c2c(nc3ccc(OC(=O)N4CCC(N5CCCCC5)CC4)cc13)-c1cc3c(c(=O)n1C2)COC(=O)[C@]3(O)CC` [irinotecan], the DNA damage entry in data set [5] is reported as “moderate level of DNA damaging activity”.
